The values below come from ChEMBL document CHEMBL5370549, “Optimization and evaluation of pyridinyl vinyl sulfones as Nrf2 activator for the antioxidant and anti-inflammatory effects” (Eur J Med Chem, 2023).

Data set [1] deals with T1, Nuclear factor erythroid 2-related factor 2 (Homo sapiens, UniProt Q16236).
T1 sequence (Q16236 whole entry): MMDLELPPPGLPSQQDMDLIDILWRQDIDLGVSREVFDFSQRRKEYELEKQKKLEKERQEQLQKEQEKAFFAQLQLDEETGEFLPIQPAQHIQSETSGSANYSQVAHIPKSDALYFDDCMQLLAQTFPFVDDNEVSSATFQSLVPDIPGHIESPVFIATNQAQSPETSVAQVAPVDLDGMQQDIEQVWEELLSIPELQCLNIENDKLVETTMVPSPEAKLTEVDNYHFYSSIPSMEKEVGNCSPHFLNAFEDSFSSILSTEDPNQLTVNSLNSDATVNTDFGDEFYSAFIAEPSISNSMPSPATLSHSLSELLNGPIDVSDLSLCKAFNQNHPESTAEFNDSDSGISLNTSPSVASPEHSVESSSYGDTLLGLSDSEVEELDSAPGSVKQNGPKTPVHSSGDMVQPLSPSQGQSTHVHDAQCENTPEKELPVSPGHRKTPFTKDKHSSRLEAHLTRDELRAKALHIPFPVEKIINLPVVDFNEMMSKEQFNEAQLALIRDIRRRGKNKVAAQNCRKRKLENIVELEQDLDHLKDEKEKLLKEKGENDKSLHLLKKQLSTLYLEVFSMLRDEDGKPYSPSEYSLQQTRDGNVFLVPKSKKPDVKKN
Kind of data set: Activation of Nrf2 in human U2OS cells co-expressing Keap1 assessed as induction of Nrf2 nuclear translocation incubated for 6 hrs by PathHunter chemiluminescence based analysis. The format is cell-based.

The target of data set [2] is T2, CYP1A2 (Homo sapiens, UniProt P05177).
T2 sequence (P05177 whole entry): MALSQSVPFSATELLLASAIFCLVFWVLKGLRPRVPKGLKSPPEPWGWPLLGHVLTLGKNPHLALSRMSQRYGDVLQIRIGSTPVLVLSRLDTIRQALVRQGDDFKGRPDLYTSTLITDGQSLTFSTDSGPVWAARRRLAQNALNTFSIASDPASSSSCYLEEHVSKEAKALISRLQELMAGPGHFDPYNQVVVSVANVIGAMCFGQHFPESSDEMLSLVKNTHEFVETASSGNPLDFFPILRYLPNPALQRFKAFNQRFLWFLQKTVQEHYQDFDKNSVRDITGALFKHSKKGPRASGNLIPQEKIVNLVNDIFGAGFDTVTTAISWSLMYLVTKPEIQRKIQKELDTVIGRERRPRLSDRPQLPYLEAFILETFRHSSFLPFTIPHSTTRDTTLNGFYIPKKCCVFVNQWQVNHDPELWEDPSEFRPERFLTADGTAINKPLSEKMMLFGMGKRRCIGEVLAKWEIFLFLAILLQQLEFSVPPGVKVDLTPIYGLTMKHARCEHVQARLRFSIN
Kind of data set: Inhibition of CYP1A2 (unknown origin) assessed as enzyme activity at 10 uM relative to control. The class given is ADME. Also noted: scale not given: the % may be the effect or the level left. The settings on record: read-out: Activity.

Data set [3] concerns the target CYP3A4 (Homo sapiens, UniProt P08684). Kind of data set: Inhibition of CYP3A4 (unknown origin) assessed as enzyme activity at 10 uM relative to control. The class given is ADME. As to conditions: read-out: Activity. Also noted: scale not given: the % may be the effect or the level left.
Data set [4] addresses CYP2C9 (Homo sapiens, UniProt P11712). Kind of data set: Inhibition of CYP2C9 (unknown origin) assessed as enzyme activity at 10 uM relative to control. The format is ADME. Also noted: scale not given: the % may be the effect or the level left. The settings on record: read-out: Activity.
In data set [5] the target is CYP2C19 (Homo sapiens, UniProt P33261). Kind of data set: Inhibition of CYP2C19 (unknown origin) assessed as enzyme activity at 10 uM relative to control. The settings on record: read-out: Activity. The class given is ADME. Also noted: scale not given: the % may be the effect or the level left.
In data set [6] the target is CYP2D6 (Homo sapiens, UniProt P10635). Kind of data set: Inhibition of CYP2D6 (unknown origin) assessed as enzyme activity at 10 uM relative to control. As to conditions: read-out: Activity. The format is ADME. Also noted: scale not given: the % may be the effect or the level left.
The nature of data set [7]: Metabolic stability of the compound in human liver microsomes assessed as parent compound remaining measured after 30 mins. The format is ADME, Microsome. As to conditions: read-out: Stability. (In general: Liver microsomes are a subcellular fraction often used to study metabolism.)
A short description of data set [8]: Metabolic stability of the compound in mouse liver microsomes assessed as parent compound remaining measured after 30 mins. The class given is ADME, Microsome. As to conditions: read-out: Stability.
A short description of data set [9]: Metabolic stability of the compound in human plasma assessed as parent compound remaining measured after 30 mins. The class given is ADME, cell-free. As to conditions: read-out: Stability.
Data set [10] is described as follows: Metabolic stability of the compound in rat plasma assessed as parent compound remaining measured after 30 mins. The settings on record: read-out: Stability. The format is ADME, cell-free.

CYP2C9, sequence (P11712 whole entry): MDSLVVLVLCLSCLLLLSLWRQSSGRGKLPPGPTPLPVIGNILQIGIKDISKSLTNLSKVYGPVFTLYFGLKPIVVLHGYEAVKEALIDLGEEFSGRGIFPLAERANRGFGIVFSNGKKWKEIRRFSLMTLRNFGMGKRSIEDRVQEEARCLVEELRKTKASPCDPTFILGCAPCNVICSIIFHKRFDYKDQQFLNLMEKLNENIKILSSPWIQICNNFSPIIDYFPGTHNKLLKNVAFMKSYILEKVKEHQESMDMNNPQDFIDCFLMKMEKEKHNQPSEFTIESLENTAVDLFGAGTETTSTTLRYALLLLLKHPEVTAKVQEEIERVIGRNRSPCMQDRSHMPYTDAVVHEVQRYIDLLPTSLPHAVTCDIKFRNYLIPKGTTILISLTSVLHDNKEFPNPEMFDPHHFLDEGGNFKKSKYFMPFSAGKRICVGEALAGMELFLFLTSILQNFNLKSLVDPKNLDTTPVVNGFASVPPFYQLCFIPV
CYP3A4, sequence (P08684 whole entry): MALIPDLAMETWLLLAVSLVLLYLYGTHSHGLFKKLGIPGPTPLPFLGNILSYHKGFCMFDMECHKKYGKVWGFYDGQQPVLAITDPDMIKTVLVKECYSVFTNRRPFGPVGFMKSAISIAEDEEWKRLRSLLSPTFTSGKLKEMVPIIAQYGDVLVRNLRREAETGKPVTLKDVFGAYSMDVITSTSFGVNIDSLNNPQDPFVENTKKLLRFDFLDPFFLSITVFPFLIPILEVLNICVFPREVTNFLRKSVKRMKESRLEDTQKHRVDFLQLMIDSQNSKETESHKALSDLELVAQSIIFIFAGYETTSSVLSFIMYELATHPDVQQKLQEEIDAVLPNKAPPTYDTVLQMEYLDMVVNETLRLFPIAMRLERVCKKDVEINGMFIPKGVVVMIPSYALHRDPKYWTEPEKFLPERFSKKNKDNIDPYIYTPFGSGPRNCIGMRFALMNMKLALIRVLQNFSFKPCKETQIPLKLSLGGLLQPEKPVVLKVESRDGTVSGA
CYP2C19, sequence (P33261 whole entry): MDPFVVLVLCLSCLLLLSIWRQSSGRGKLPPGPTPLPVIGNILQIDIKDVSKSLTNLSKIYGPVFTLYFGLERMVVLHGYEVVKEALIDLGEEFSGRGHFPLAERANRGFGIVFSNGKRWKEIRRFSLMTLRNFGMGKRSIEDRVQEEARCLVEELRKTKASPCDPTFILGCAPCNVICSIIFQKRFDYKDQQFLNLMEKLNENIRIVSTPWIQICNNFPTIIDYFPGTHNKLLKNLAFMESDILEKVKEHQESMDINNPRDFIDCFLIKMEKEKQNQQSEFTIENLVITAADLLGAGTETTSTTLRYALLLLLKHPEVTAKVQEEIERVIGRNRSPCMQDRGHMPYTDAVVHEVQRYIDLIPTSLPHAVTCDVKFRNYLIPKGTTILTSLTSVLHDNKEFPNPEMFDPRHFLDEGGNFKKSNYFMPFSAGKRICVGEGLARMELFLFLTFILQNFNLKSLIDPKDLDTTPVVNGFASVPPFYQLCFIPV
CYP2D6, sequence (P10635 whole entry): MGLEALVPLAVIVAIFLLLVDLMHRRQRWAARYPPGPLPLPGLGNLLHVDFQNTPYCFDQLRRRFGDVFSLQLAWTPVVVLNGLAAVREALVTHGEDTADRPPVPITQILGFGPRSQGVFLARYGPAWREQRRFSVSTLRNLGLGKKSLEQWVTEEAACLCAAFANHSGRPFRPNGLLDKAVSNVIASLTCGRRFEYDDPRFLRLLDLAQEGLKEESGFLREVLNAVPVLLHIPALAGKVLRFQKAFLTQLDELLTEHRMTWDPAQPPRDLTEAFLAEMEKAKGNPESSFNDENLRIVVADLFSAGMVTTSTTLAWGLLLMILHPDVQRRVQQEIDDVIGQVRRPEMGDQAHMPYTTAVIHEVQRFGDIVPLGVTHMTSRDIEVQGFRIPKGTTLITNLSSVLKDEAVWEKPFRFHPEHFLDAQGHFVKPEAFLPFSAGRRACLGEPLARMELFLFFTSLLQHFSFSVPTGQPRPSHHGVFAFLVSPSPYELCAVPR

As for `COc1ccnc(S(=O)(=O)/C=C/c2ccccc2C(F)(F)F)c1`, the EC50 in [1] turned out to be 0.115 µM. Also, the activity at 10 µM amounted to 33.8% in data set [2]; 39.8% in [3]; 38.2% in [4]; 14.9% in data set [5]; 96.3% in data set [6]. In addition, the remaining at 0.5 h in [7] turned out to be 58.5%; in data set [8] it was 1.6%; in [9], 99%; in data set [10] it was 95.3%.

As for `COc1ncccc1S(=O)(=O)/C=C/c1ncccc1C(F)(F)F`, in data set [1], the EC50 was 0.214 µM. The activity at 10 µM in data set [2] was 57.3%; in data set [3], 51.7%; in [4], greater than 99%; in data set [5] it was 17.6%; in data set [6] it was greater than 99%. In addition, the remaining at 0.5 h in data set [7] is 59.4%; in data set [8], 29.9%; in data set [9] it was 97.4%; in data set [10], 88.6%.

Take `COc1ccc(S(=O)(=O)/C=C/c2ccccc2C(F)(F)F)nc1`: in data set [1], the EC50 turned out to be 0.245 µM. Besides, the activity at 10 µM in data set [2] was 27.8%; in [3], 58%; in [4], greater than 99%; in data set [5], 3.7%; in data set [6] it was 100%. In addition, the remaining at 0.5 h in [7] was found to be 31.7%; in data set [8], 2.7%; in data set [9] it was 99%; in [10], 94.7%.

On to `COc1ccnc(S(=O)(=O)/C=C/c2ncccc2Cl)c1`, for which the EC50 in data set [1] stood at 0.03 µM. The activity at 10 µM in data set [2] came to 69.9%; in data set [3], 70.9%; in data set [4] it was 76.1%; in data set [5] it was 27.6%; in data set [6], 100%. Also, the remaining at 0.5 h came out at 61.7% in [7], 36.8% in data set [8], 95% in data set [9] and 65.9% in data set [10].

The term EC50 denotes the concentration giving half of the maximal effect.
